# Measured values as given in patent publication US7932031B2, “Methods for determining sensitivity to microtubule-stabilizing agents comprising ixabepilone by measuring the level of estrogen receptor 1” (Bristol-Myers Squibb Company, priority 2004, dated 2011).
# System: invasive stage IIA-IIIB breast adenocarcinoma
# Test: CA163-080 exploratory genomic phase II study, ixabepilone as neoadjuvant treatment, pathologic complete response (Sataloff classification)
# Type: in vivo, human
# Conditions: breast cancer patients, 40 mg/m^2 3-hour infusion on Day 1, up to four 21-day cycles
# Method: CA163-080 is an exploratory genomic phase II study that was conducted in breast cancer patients who received ixabepilone as a neoadjuvant treatment. The primary objective of this study was to identify predictive markers of response to ixabepilone through gene expression profiling of pre-treatment breast cancer biopsies. Patients with invasive stage IIA-IIIB breast adenocarcinoma (tumor size≧3 cm diameter) received 40 mg/m^2 ixabepilone as a 3-hour infusion on Day 1 for up to four 21-day cycles, followed by surgery within 3-4 weeks of completion of chemotherapy. A total of 164 patients were enrolled in this study. Biopsies for gene expression analysis were obtained both pre- and post-treatment. […]
# Pathological response was assessed using the Sataloff classification system (D. Sataloff et al., J. Am. Coll. Surg., 180(3):297-306 (1995)) and used as an end point for the pharmacogenomic analysis. The pathologic response was evaluated in the primary tumor site at the end of treatment and prior to surgery by assessing histologic changes compared with baseline as following: At the primary tumor site, cellular modifications were evaluated in both the infiltrating tumoral component and in the possible ductal component, to determine viable residual infiltrating component (% of total tumoral mass); residual ductal component (% of total tumoral mass); the mitotic index. […]
smiles,measurement,setting,value
C/C(=C\c1csc(C)n1)[C@@H]1C[C@@H]2O[C@]2(C)CCC[C@H](C)[C@H](O)[C@@H](C)C(=O)C(C)(C)[C@@H](O)CC(=O)N1 [ixabepilone],pCR response rate,"the other sites (excluding Russian sites 16, 24 and 25)",19.8%
same,pCR response rate,"tumors from the three Russian sites (16, 24 and 25)",17.2%
